Reference: patent US6911445B2, “Antidepressant cycloalkylamine derivatives of heterocycle-fused benzodioxans” (Wyeth, priority 2002, dated 2005)

Legend:
[1] = target: T1, serotonin transporter (Rattus norvegicus, UniProt P31652); assay: Displacement of 3H-paroxetine from male rat frontal cortical membranes (serotonin transporter affinity); type: binding; settings: read-out: 5-HT Transporter Affinity Ki
T1 construct: displace ^3H-paroxetine from male rat frontal cortical membranes; from tissue; host or cells: male rat frontal cortex membranes

[2] = target: T2, human 5HT1A receptors (Homo sapiens, UniProt P08908); assay: Displacement of [3H] 8-OH-DPAT from 5HT1A receptor in stably transfected CHO cells; type: binding; settings: CHO cells with human 5HT1A receptors, read-out: 5HT1A Receptor Affinity Ki
T2 construct: expressed in transfected cells; host or cells: CHO cells
T2 sequence (P08908 1-422): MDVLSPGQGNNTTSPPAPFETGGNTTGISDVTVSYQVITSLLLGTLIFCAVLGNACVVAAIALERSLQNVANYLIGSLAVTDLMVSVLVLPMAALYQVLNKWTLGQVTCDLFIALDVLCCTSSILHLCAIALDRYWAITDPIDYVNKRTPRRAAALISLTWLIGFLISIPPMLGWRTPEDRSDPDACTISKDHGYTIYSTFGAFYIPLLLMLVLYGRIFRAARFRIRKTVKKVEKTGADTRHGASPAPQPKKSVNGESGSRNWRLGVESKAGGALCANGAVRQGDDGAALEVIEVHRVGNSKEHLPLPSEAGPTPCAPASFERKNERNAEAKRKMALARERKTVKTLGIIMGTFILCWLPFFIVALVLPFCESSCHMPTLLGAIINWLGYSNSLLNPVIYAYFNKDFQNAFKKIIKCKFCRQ
From the text: High affinity for the serotonin 5HT1A receptor was established by testing the claimed compound's ability to displace [^3H] 8-OH-DPAT (dipropylamino-tetralin) from the 5HT1A serotonin receptor following a modification of the procedure of Hall, et al., J. Neurochem. 44, 1685 (1985), which utilizes CHO cells stably transfected with human 5HT1A receptors.

[3] = target: T3, cloned human 5HT1A receptors (Homo sapiens, UniProt P08908); assay: 35S-GTPγS binding assay, membranes containing cloned human 5HT1A receptors; type: biochemical
T3 construct: expressed in transfected cells
T3 sequence (P08908 1-422): T2 sequence (P08908 1-422)
Method: Antagonist activity at 5HT1A receptors was established by using a ^35S-GTPγS binding assay similar to that used by Lazareno and Birdsall (Br. J. Pharmacol. 109:1120, 1993), in which the test compound's ability to affect the binding of ^35S-GTPγS to membranes containing cloned human 5HT1A receptors was determined. Agonists produce an increase in binding whereas antagonists produce no increase but rather reverse the effects of the standard agonist 8-OH-DPAT. The test compound's maximum inhibitory effect is represented as the Imax, while its potency is defined by the IC50.

T1 sequence (P31652 whole entry): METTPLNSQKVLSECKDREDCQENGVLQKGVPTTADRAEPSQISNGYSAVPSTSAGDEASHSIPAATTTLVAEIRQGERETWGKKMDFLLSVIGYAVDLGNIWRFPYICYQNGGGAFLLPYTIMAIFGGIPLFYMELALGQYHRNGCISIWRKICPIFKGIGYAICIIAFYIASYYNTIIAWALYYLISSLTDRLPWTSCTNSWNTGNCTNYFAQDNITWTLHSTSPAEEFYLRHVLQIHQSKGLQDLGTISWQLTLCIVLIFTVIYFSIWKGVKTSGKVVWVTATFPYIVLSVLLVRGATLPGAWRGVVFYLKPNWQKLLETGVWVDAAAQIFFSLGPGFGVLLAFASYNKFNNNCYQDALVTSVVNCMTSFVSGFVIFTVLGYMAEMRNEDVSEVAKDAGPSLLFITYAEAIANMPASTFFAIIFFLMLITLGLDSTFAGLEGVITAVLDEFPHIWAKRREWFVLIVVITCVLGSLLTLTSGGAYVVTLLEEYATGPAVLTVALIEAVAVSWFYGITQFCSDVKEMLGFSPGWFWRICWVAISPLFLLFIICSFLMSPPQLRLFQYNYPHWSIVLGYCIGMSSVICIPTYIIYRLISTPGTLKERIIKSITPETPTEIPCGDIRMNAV

Ki [1]: 1.46 nM | Ki [2]: 16.4 nM | IC50 ([3]; antagonist potency, reversal of the standard agonist 8-OH-DPAT, read-out: 5HT1A Function IC50): 274 nM | 5HT1A Function (Imax) ([3]; maximum inhibitory effect, value in parentheses): 100% | melting point: 79 to 82 °C
SMILES: Cc1nc2ccc3c(c2o1)O[C@@H](CN[C@H]1CC[C@@H](c2c[nH]c4ccc(F)cc24)C1)CO3 (mixture of isomers) [Example 11, N-[(cis)-3-(5-Fluoro-1H-indol-3-yl)cyclopentyl]-N-{[(8S)-2-methyl-7,8-dihydro[1,4]dioxino[2,3-g][1,3]benzoxazol-8-yl]methyl}amine]
